Drawing on patent US20080194614A1, “Combination of Organic Compounds” (priority 2005, published 2008), this text covers NTEL for 1 compound.

A short description of data set [1]: 4-week toxicity study in rats. The data set is classed as in vivo. The protocol:
(§1) Rapamycin or derivatives thereof are well tolerated at dosages required for use in accordance with the present invention. For example, the NTEL for Compound A in a 4-week toxicity study is 0.5 mg/kg/day in rats and 1.5 mg/kg/day in monkeys.

Data set [2] can be described thus: 4-week toxicity study in monkeys. The data set is classed as in vivo. The procedure:
as §1

With `CO[C@H]1C[C@@H]2CC[C@@H](C)[C@@](O)(O2)C(=O)C(=O)N2CCCC[C@H]2C(=O)O[C@H]([C@H](C)C[C@@H]2CC[C@@H](OCCO)[C@H](OC)C2)CC(=O)[C@H](C)/C=C(\C)[C@@H](O)[C@@H](OC)C(=O)[C@H](C)C[C@H](C)/C=C/C=C/C=C/1C` [Compound A, 40-0-(2-hydroxyethyl)-rapamycin], the results for the NTEL in data set [1] and in data set [2] were 0.5 mg/kg/day and 1.5 mg/kg/day, respectively.
